{
  "source": "PubChem BioAssay (NCI)",
  "assay_in_all_cases": "DTP human tumour cell line panel, 48 h",
  "key": {"SF-295 CNS": {"system": "SF-295 CNS"}, "OVCAR-8 ovarian": {"system": "OVCAR-8 ovarian"}, "HL-60(TB) leukemia": {"system": "HL-60(TB) leukemia"}, "XF 498 CNS": {"system": "XF 498 CNS"}, "CCRF-CEM leukemia": {"system": "CCRF-CEM leukemia"}, "SK-MEL-28 melanoma": {"system": "SK-MEL-28 melanoma"}, "786-0 renal": {"system": "786-0 renal"}, "KM12 colon": {"system": "KM12 colon"}, "HCT-116 colon": {"system": "HCT-116 colon"}, "UACC-257 melanoma": {"system": "UACC-257 melanoma"}, "NCI-H522 lung": {"system": "NCI-H522 lung"}, "OVCAR-5 ovarian": {"system": "OVCAR-5 ovarian"}, "SK-OV-3 ovarian": {"system": "SK-OV-3 ovarian"}, "HOP-18 NSCLC": {"system": "HOP-18 NSCLC"}, "A498 renal": {"system": "A498 renal"}, "SW-620 colon": {"system": "SW-620 colon"}, "OVCAR-3 ovarian": {"system": "OVCAR-3 ovarian"}, "KM20L2 colon": {"system": "KM20L2 colon"}, "LXFL 529 NSCLC": {"system": "LXFL 529 NSCLC"}, "CAKI-1 renal": {"system": "CAKI-1 renal"}, "IGROV1 ovarian": {"system": "IGROV1 ovarian"}, "UACC-62 melanoma": {"system": "UACC-62 melanoma"}, "U251 CNS": {"system": "U251 CNS"}, "SNB-19 CNS": {"system": "SNB-19 CNS"}, "M14 melanoma": {"system": "M14 melanoma"}, "SF-539 CNS": {"system": "SF-539 CNS"}, "DLD-1 colon": {"system": "DLD-1 colon"}, "ACHN renal": {"system": "ACHN renal"}, "LOX IMVI melanoma": {"system": "LOX IMVI melanoma"}, "K-562 leukemia": {"system": "K-562 leukemia"}, "NCI-H23 lung": {"system": "NCI-H23 lung"}, "HOP-62 NSCLC": {"system": "HOP-62 NSCLC"}, "HCT-15 colon": {"system": "HCT-15 colon"}, "RPMI-8226 leukemia": {"system": "RPMI-8226 leukemia"}, "HT29 colon": {"system": "HT29 colon"}, "SN12C renal": {"system": "SN12C renal"}, "EKVX NSCLC": {"system": "EKVX NSCLC"}, "A549 NSCLC": {"system": "A549 NSCLC"}, "TK-10 renal": {"system": "TK-10 renal"}, "MALME-3M melanoma": {"system": "MALME-3M melanoma"}, "UO-31 renal": {"system": "UO-31 renal"}, "SNB-75 CNS": {"system": "SNB-75 CNS"}, "NCI-H226 lung": {"system": "NCI-H226 lung"}, "SK-MEL-2 melanoma": {"system": "SK-MEL-2 melanoma"}, "DMS 114 small cell lung": {"system": "DMS 114 small cell lung"}, "SR leukemia": {"system": "SR leukemia"}, "SK-MEL-5 melanoma": {"system": "SK-MEL-5 melanoma"}, "MOLT-4 leukemia": {"system": "MOLT-4 leukemia"}, "M19-MEL melanoma": {"system": "M19-MEL melanoma"}, "HOP-92 NSCLC": {"system": "HOP-92 NSCLC"}, "RXF 393 renal": {"system": "RXF 393 renal"}, "OVCAR-4 ovarian": {"system": "OVCAR-4 ovarian"}, "SNB-78 CNS": {"system": "SNB-78 CNS"}, "RXF-631 renal": {"system": "RXF-631 renal"}, "NCI-H460 lung": {"system": "NCI-H460 lung"}, "HCC-2998 colon": {"system": "HCC-2998 colon"}, "COLO 205 colon": {"system": "COLO 205 colon"}, "SF-268 CNS": {"system": "SF-268 CNS"}},
  "note": "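All cell lines were grown in 96-well plates and treated with compound for 48 hours. TGI: total growth inhibition.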",
  "data": [
    {"smiles": "CC/C(SC)=[N+](\\C)[O-]", "values": [
      {"measurement": "TGI", "setting": "SF-295 CNS", "result": "> 100", "unit": "µM"},
      {"measurement": "TGI", "setting": "OVCAR-8 ovarian", "result": "> 100", "unit": "µM"},
      {"measurement": "TGI", "setting": "HL-60(TB) leukemia", "result": 25.2, "unit": "µM"},
      {"measurement": "TGI", "setting": "XF 498 CNS", "result": "> 100", "unit": "µM"},
      {"measurement": "TGI", "setting": "CCRF-CEM leukemia", "result": 23.2, "unit": "µM"},
      {"measurement": "TGI", "setting": "SK-MEL-28 melanoma", "result": "> 100", "unit": "µM"},
      {"measurement": "TGI", "setting": "786-0 renal", "result": "> 100", "unit": "µM"},
      {"measurement": "TGI", "setting": "KM12 colon", "result": "> 100", "unit": "µM"},
      {"measurement": "TGI", "setting": "HCT-116 colon", "result": "> 68.4", "unit": "µM"},
      {"measurement": "TGI", "setting": "UACC-257 melanoma", "result": "> 100", "unit": "µM"},
      {"measurement": "TGI", "setting": "NCI-H522 lung", "result": "> 62.3", "unit": "µM"},
      {"measurement": "TGI", "setting": "OVCAR-5 ovarian", "result": "> 100", "unit": "µM"},
      {"measurement": "TGI", "setting": "SK-OV-3 ovarian", "result": "> 100", "unit": "µM"},
      {"measurement": "TGI", "setting": "HOP-18 NSCLC", "result": "> 100", "unit": "µM"},
      {"measurement": "TGI", "setting": "A498 renal", "result": "> 100", "unit": "µM"},
      {"measurement": "TGI", "setting": "SW-620 colon", "result": "> 100", "unit": "µM"},
      {"measurement": "TGI", "setting": "OVCAR-3 ovarian", "result": "> 100", "unit": "µM"},
      {"measurement": "TGI", "setting": "KM20L2 colon", "result": "> 100", "unit": "µM"},
      {"measurement": "TGI", "setting": "LXFL 529 NSCLC", "result": "> 100", "unit": "µM"},
      {"measurement": "TGI", "setting": "CAKI-1 renal", "result": "> 100", "unit": "µM"},
      {"measurement": "TGI", "setting": "IGROV1 ovarian", "result": "> 100", "unit": "µM"},
      {"measurement": "TGI", "setting": "UACC-62 melanoma", "result": "> 100", "unit": "µM"},
      {"measurement": "TGI", "setting": "U251 CNS", "result": "> 100", "unit": "µM"},
      {"measurement": "TGI", "setting": "SNB-19 CNS", "result": "> 100", "unit": "µM"},
      {"measurement": "TGI", "setting": "M14 melanoma", "result": "> 100", "unit": "µM"},
      {"measurement": "TGI", "setting": "SF-539 CNS", "result": "> 100", "unit": "µM"},
      {"measurement": "TGI", "setting": "DLD-1 colon", "result": "> 69", "unit": "µM"},
      {"measurement": "TGI", "setting": "ACHN renal", "result": "> 100", "unit": "µM"},
      {"measurement": "TGI", "setting": "LOX IMVI melanoma", "result": "> 55.8", "unit": "µM"},
      {"measurement": "TGI", "setting": "K-562 leukemia", "result": "> 100", "unit": "µM"},
      {"measurement": "TGI", "setting": "NCI-H23 lung", "result": "> 100", "unit": "µM"},
      {"measurement": "TGI", "setting": "HOP-62 NSCLC", "result": "> 100", "unit": "µM"},
      {"measurement": "TGI", "setting": "HCT-15 colon", "result": "> 100", "unit": "µM"},
      {"measurement": "TGI", "setting": "RPMI-8226 leukemia", "result": "> 100", "unit": "µM"},
      {"measurement": "TGI", "setting": "HT29 colon", "result": "> 100", "unit": "µM"},
      {"measurement": "TGI", "setting": "SN12C renal", "result": "> 100", "unit": "µM"},
      {"measurement": "TGI", "setting": "EKVX NSCLC", "result": "> 100", "unit": "µM"},
      {"measurement": "TGI", "setting": "A549 NSCLC", "result": "> 100", "unit": "µM"},
      {"measurement": "TGI", "setting": "TK-10 renal", "result": "> 100", "unit": "µM"},
      {"measurement": "TGI", "setting": "MALME-3M melanoma", "result": "> 100", "unit": "µM"},
      {"measurement": "TGI", "setting": "UO-31 renal", "result": "> 100", "unit": "µM"},
      {"measurement": "TGI", "setting": "SNB-75 CNS", "result": "> 100", "unit": "µM"},
      {"measurement": "TGI", "setting": "NCI-H226 lung", "result": "> 100", "unit": "µM"},
      {"measurement": "TGI", "setting": "SK-MEL-2 melanoma", "result": "> 100", "unit": "µM"},
      {"measurement": "TGI", "setting": "DMS 114 small cell lung", "result": "> 54.2", "unit": "µM"},
      {"measurement": "TGI", "setting": "SR leukemia", "result": 50, "unit": "µM"},
      {"measurement": "TGI", "setting": "SK-MEL-5 melanoma", "result": "> 100", "unit": "µM"},
      {"measurement": "TGI", "setting": "MOLT-4 leukemia", "result": 79.3, "unit": "µM"},
      {"measurement": "TGI", "setting": "M19-MEL melanoma", "result": "> 100", "unit": "µM"},
      {"measurement": "TGI", "setting": "HOP-92 NSCLC", "result": "> 100", "unit": "µM"},
      {"measurement": "TGI", "setting": "RXF 393 renal", "result": "> 100", "unit": "µM"},
      {"measurement": "TGI", "setting": "OVCAR-4 ovarian", "result": "> 100", "unit": "µM"},
      {"measurement": "TGI", "setting": "SNB-78 CNS", "result": "> 100", "unit": "µM"},
      {"measurement": "TGI", "setting": "RXF-631 renal", "result": "> 100", "unit": "µM"},
      {"measurement": "TGI", "setting": "NCI-H460 lung", "result": "> 100", "unit": "µM"},
      {"measurement": "TGI", "setting": "HCC-2998 colon", "result": "> 100", "unit": "µM"},
      {"measurement": "TGI", "setting": "COLO 205 colon", "result": "> 66.9", "unit": "µM"},
      {"measurement": "TGI", "setting": "SF-268 CNS", "result": "> 100", "unit": "µM"}
    ]}
  ]
}
